{"source": "patent US20080293818A1", "about": "“Regulator of Physiological Function of Ghrelin and Use Thereof” (priority 2004, published 2008)", "key": {"plasma ghrelin peptides": {"test_system": "plasma ghrelin peptides", "test": "Molecular forms of circulating (plasma) ghrelin after glyceryl triheptanoate ingestion", "format": "in vivo, mouse", "settings": "fed 4 days, HPLC, C-RIA", "protocol": "Plasma samples were prepared as previously described [D2]. Whole blood samples were immediately transferred to chilled polypropylene tubes containing EDTA-2 Na (1 mg/ml) and aprotinin (1,000 kallikrein inactivator units/ml) and centrifuged at 4° C. Immediately after separation of the plasma, hydrogen chloride was added to the sample at final concentration of 0.1 N and then diluted with an equal volume of physiological saline. The sample was loaded onto a Sep-Pak C18 cartridge (Waters, Milford, Mass.) pre-equilibrated with 0.1% trifluoroacetic acid (TFA) and 0.9% NaCl. The cartridge was washed with 0.9% NaCl and 5% acetonitrile (CH3CN)/0.1% TFA, and then eluted with 60% CH3CN/0.1% TFA. The eluate was then lyophilized and residual materials were redissolved in 1 M acetic acid (AcOH) and adsorbed onto a SP-Sephadex C-25 column (H^+-form, Pharmacia, Uppsala, Sweden) pre-equilibrated in 1 M AcOH. Successive elution with 1 M AcOH, 2 M pyridine, and 2 M pyridine-AcOH (pH 5.0) provided three fractions: SP-I, SP-II and SP-III. […] Ghrelin peptide content in each fraction was measured by ghrelin C-RIA as described above.\nPlasma samples collected from control mice fed standard chow (A) and glyceryl triheptanoate-treated mice (B) were fractionated by HPLC and measured for ghrelin immunoreactivity by C-RIA. […]"}, "[1]": {"test_system": "n-heptanoyl ghrelin in the stomach", "test": "Molecular forms of stomach ghrelin after glyceryl triheptanoate ingestion (HPLC, C-RIA and N-RIA)", "format": "in vivo, mouse", "protocol": "(§1) Male C57BL/6J mice weighing 20-25 g (10-12 week old) were maintained under controlled temperature (21-23° C.) and light conditions (light on 0700-1900) with ad libitum access to food and water. Medium-chain fatty acids (MCFAs), i.e., n-hexanoic, n-octanoic, and n-lauric acids (Sigma-Aldrich Japan Co., Ltd., Tokyo), were dissolved in water at 5 mg/ml. n-Palmitic acid, a common long-chain fatty acid (LCFA) (Sigma-Aldrich Japan Co., Ltd., Tokyo), was mixed into standard laboratory chow (CLEA Rodent Diet CE-2, CLEA Japan, Osaka) at a concentration of 1% (w/w), to equilibrate the total intake amount of this lipid to the other medium-chain fatty acids contained in the food. Medium- and long-chain triglycerides (MCTs and LCTs), i.e., glyceryl trihexanoate, trioctanoate, tridecanoate and tripalmitates (Wako Pure Chemical, Osaka, Japan), were mixed with standard laboratory chow at a concentration of 5% (w/w). Whole stomach tissues from treated mice were collected at the indicated times (0-14 days) after ingesting the free fatty acid- or triacylglyceride-containing food. Fresh tissue samples from these mice were diced and boiled for 5 minutes in a 10-fold volume of water. The tissue-containing solution was then adjusted to 1M acetic acid after cooling and then homogenized with a Polytron mixer. The supernatant, obtained after centrifugation at 15,000 rpm for 15 minutes, was then lyophilized. The lyophilized material was dissolved in RIA buffer and subjected to ghrelin C- and N-RIA. To elucidate the forms of ghrelin peptides modified by different acyl groups, extracted stomach peptides were collected using a Sep-Pak Plus C18 cartridge (Waters, Milford, Mass.) and subjected to C18 RP-HPLC (Symmetry 300, 3.9×150 mm, Waters) with a linear gradient from 10 to 60% CH3CN/0.1% TFA at a flow rate of 1.0 ml/minute for 40 minutes. Five hundred micro-litter fractions were collected. Ghrelin peptide content in each fraction was measured by ghrelin C- and N-RIA as described above. Degradation of ghrelin was not observed during the extraction.\nMale C57BL/6J mice weighing 20-25 g (10-12 week old) were maintained under controlled temperature (21-23° C.) and light conditions (light on 0700-1900) with ad libitum access to food and water. Glyceryl triheptanoate (Fluka Chemie GmbH, Buchs, Switzerland) was mixed with standard laboratory chow at a concentration of 5% (w/w). Four days after mice were fed glyceryl triheptanoate-containing food, stomachs (total 1,000 mg) were recovered from mice (n=7). The total consumption of glyceryl triheptanoate-containing food was approximately 13.5 g/mouse, amounting to 675 mg total glyceryl triheptanoate ingested by each mouse. Stomachs were minced and boiled for 5 minutes in 5× volumes of water to inactivate intrinsic proteases. […]"}, "[2]": {"test_system": "des-acyl and acyl-modified ghrelin peptides in the stomach", "test": "Molecular forms of stomach ghrelin peptide after ingestion (HPLC fractionation, C-RIA)", "format": "in vivo, mouse", "protocol": "as §1\nTo clarify what molecular forms of ghrelin peptide are present after the ingestion of triacylglycerol (triacylglycerin), peptide extracts from stomachs of mouse fed chow containing glyceryl trihexanoate (C6:0-MCT), glyceryl trioctanoate (C8:0-MCT), glyceryl tridecanoate (C10:0-MCT), and standard laboratory chow (Control) were fractionated by HPLC, and measured for ghrelin immunoreactivity by C-RIA. […] Based on the observed retention times of synthetic acyl-modified ghrelin peptides, peaks a, d, h, and k corresponded to des-acyl ghrelin, peaks b, f, i, and 1 corresponded to n-octanoyl (C8:0) ghrelin, and peaks c, g, j, and m corresponded to n-decenoyl (10:1) ghrelin.\nMale C57BL/6J mice were fed chow mixed with 5% (w/w) glyceryl trihexanoate (C6:0-MCT), glyceryl trioctanoate (C8:0-MCT), or glyceryl tri-decanoate (C10:0-MCT) for 14 days. The concentrations of des-acyl ghrelin, n-hexanoyl ghrelin (C6:0-ghrelin), n-octanoyl ghrelin (C8:0-ghrelin), n-decenoyl ghrelin (C10:1-ghrelin), and n-decanoyl ghrelin (C10:0-ghrelin) from stomach samples (from 0.2 mg wet weight) were measured by ghrelin C-RIA after HPLC fractionation."}, "[3]": {"test_system": "acyl-modified and total ghrelin in the stomach", "test": "Time course of acyl-modified ghrelin production after glyceryl trioctanoate ingestion", "format": "in vivo, mouse", "protocol": "To examine time-dependent changes in the production of n-octanoyl ghrelin after the ingestion of a glyceryl trioctanoate, mice were fed with glyceryl trioctanoate-containing chow (5%, w/w) after a 12-hour fasting period. The concentrations of acyl-modified and total ghrelins in the stomach were measured at the indicated times.\nA represents acyl-modified ghrelin content measured by ghrelin N-RIA. B represents total ghrelin content measured by ghrelin C-RIA. After 12-hour fasting, glyceryl trioctanoate (5% w/w)-containing chow was given to mice beginning at the time (0 hour) indicated by the arrow. Stomach samples were isolated from control mice fed standard laboratory chow (closed circles) and mice fed glyceryl trioctanoate (open circles) at the indicated times. Each point represents mean ±S.D. (n=8). Asterisks indicate statistical significance. *, p<0.05; **, p<0.01 and ***, p<0.001 vs. control."}, "[4]": {"test_system": "acyl-modified and total ghrelin in the stomach", "test": "Stomach ghrelin content after medium- to long-chain triacylglycerol ingestion (N-RIA / C-RIA)", "format": "in vivo, mouse", "settings": "mice, 5% (w/w) in chow, two weeks, N-RIA", "protocol": "(§2) RIAs specific for ghrelin were performed as previously described [D2]. Two polyclonal antibodies were raised in rabbits against the N-terminal (Gly^1-Lys^11 with O-n-octanoylation at Ser^3) and C-terminal (Gln^13-Arg^28) fragments of rat ghrelin. RIA incubation mixtures were composed of 100 μl of either standard ghrelin or an unknown sample, with 200 μl of antiserum diluted in RIA buffer (50 mM sodium phosphate buffer (pH 7.4), 0.5% BSA, 0.5% Triton-X100, 80 mM sodium chloride (NaCl), 25 mM disodium ethylenediamine-tetraacetate (EDTA 2-Na) and 0.05% sodium azide (NaN3)) containing 0.5% normal rabbit serum. Anti-rat ghrelin [D1-D11] and anti-rat ghrelin [D13-D28] antisera were used at final dilutions of 1/3,000,000 and 1/20,000, respectively. After a 12-hour incubation at 4° C., 100 μl of ^125I-labeled ligand (20,000 cpm) was added for an additional 36-hour incubation. Then, 100 μl of anti-rabbit goat antibody was added. After incubation for 24 hours at 4° C., free and bound tracers were separated by centrifugation at 3,000 rpm for 30 min. Pellet radioactivity was quantified in a gamma counter (ARC-600, Aloka, Tokyo). All assays were performed in duplicate at 4° C.\nas §1\nOrally ingested triacylglycerols are intraluminally hydrolyzed and absorbed through the gastro-intestinal mucosa as free fatty acids or monoglycerides. Thus, ingested triacylglycerols may serve as a source of free fatty acids [D26]. To examine if ingested triacylglycerols are used for acyl-modification of ghrelin, mice were fed chow mixed with 5% (w/w) glyceryl trihexanoate (C6), trioctanoate (C8), tridecanoate (C10), and tripalmintate (C16). After two weeks, gastric peptides were extracted. Ghrelin concentration in the stomach of these mice and in that from mice fed standard laboratory chow (Control) (n=8) are shown. The content of acyl-modified and total ghrelins was measured by N- and C-RIA. […]"}, "ghrelin mRNA": {"test_system": "ghrelin mRNA", "test": "Northern blot of stomach ghrelin mRNA after glyceryl trioctanoate ingestion", "format": "in vivo, mouse", "settings": "after 4 days of ingestion", "text": "Total RNAs were extracted from the stomachs of male C57BL/6J mice (12 week old) by acid guanidium thiocyanate-phenol chloroform extraction [D24] using TRIzol reagent (Invitrogen, Carlsbad Calif., USA). Two μg of total RNA was electrophoresed through a 1% agarose gel containing formaldehyde, and then transferred to a Zeta-Probe blotting membrane (Bio-Rad Laboratories, Hercules, Calif.). Membranes were hybridized with a ^32P-labeled rat ghrelin cDNA probe in hybridization buffer containing 50% formamide, 5×SSPE, 5×Denhardt's solution, 1% sodium dodecyl sulfate (SDS), and 100 μg/ml denatured salmon sperm. After an overnight hybridization at 37° C., membranes were washed and exposed to BioMax-MS film (Eastman Kodak, Rochester, N.Y.) for 12 hours at −80° C. Ghrelin mRNA levels were quantified using a Bioimaging analyzer BAS 2000 (Fujix, Tokyo, Japan).\nTo examine if the ingestion of MCTs affects the expression of ghrelin mRNA, mouse stomach RNA was quantitated by Northern blot analysis after 4 days of glyceryl trioctanoate ingestion.\nEach lane contained 2 μg of total RNA. The lower panel indicates 28S and 18S ribosomal RNAs internal controls."}, "[5]": {"test_system": "anti-rat ghrelin [D1-D11] antiserum", "test": "Cross-reactivity of ghrelin N-RIA", "format": "binding, rabbit", "settings": "for cross-reactivity of N-RIA: relative to n-octanoyl ghrelin", "protocol": "as §2\nThe cross-reactivity of N-RIA to n-decanoyl ghrelin and that to n-hexanoyl ghrelin are 20% and 0.3%, respectively. Anti-rat ghrelin [D13-D28] antiserum equally recognized both des-acyl and all acylated forms of ghrelin peptide. In the following sections, the RIA system using the antiserum against the N-terminal fragment of rat ghrelin [D1-D11] is termed N-RIA, while the RIA system using antiserum against the C-terminal fragment [D13-D28] is termed C-RIA."}, "[6]": {"settings": "stomach extract, HPLC fraction, 0.2 mg stomach tissue equivalent"}, "[7]": {"settings": "mice, 5% (w/w) in chow, 14 days, from 0.2 mg wet weight, C-RIA after HPLC, mean ± S.D."}}, "note": "Marks after values point to notes of the source that are not given here.", "data": [{"compound": "CCCCCCC(=O)OCC(COC(=O)CCCCCC)OC(=O)CCCCCC", "note": "[glyceryl triheptanoate]", "values": [{"measurement": "appearance of plasma peak f (retention time of n-heptanoyl ghrelin)", "setting": "plasma ghrelin peptides", "result": "observed only in samples from glyceryl triheptanoate-treated mice"}, {"measurement": "appearance of peak b / d (n-heptanoyl ghrelin) immunoreactivity in stomach extracts", "setting": "[1]; mice, HPLC, C-RIA / N-RIA", "result": "observed only in mice fed glyceryl triheptanoate"}, {"measurement": "concentration of peak b (n-heptanoyl ghrelin) determined by C-RIA", "setting": "[1]; [6]", "result": 466.3, "unit": "fmol/tube"}, {"measurement": "concentration of peak d (n-heptanoyl ghrelin) measured by N-RIA", "setting": "[1]; [6]", "result": 74.9, "unit": "fmol/tube"}]}, {"compound": "CCCCCCCC(=O)OCC(COC(=O)CCCCCCC)OC(=O)CCCCCCC", "note": "[glyceryl trioctanoate]", "values": [{"measurement": "C6:0-ghrelin (n-hexanoyl ghrelin) concentration in the stomach", "setting": "[2]; [7]", "result": "12.4 ± 4.9"}, {"measurement": "C8:0-ghrelin (n-octanoyl ghrelin) concentration in the stomach", "setting": "[2]; [7]", "result": "774.0 ± 89.1^c)"}, {"measurement": "C10:0-ghrelin (n-decanoyl ghrelin) concentration in the stomach", "setting": "[2]; [7]", "result": "8.1 ± 3.1"}, {"measurement": "Des-acyl ghrelin concentration in the stomach", "setting": "[2]; [7]", "result": "236.6 ± 21.1"}, {"measurement": "C10:1-ghrelin (n-decenoyl ghrelin) concentration in the stomach", "setting": "[2]; mice, 5% (w/w) in chow, 14 days, from 0.2 mg wet weight, C-RIA after HPLC, mean ± S.D., fraction holds unidentified ghrelin molecules too", "result": "51.5 ± 13.2^a)"}, {"measurement": "stomach ghrelin modified by the acyl group corresponding to the ingested lipid", "setting": "[2]; mice, HPLC peak, C-RIA", "result": "stimulated the production of n-octanoyl ghrelin"}, {"measurement": "molar ratio of n-octanoyl/total ghrelin", "setting": "[2]; stomach of treated mice", "result": "over 60%"}, {"measurement": "stomach concentration of acyl-modified ghrelin vs normal chow", "setting": "[3]; 14 days after ingestion, N-RIA", "result": "remained significantly higher"}, {"measurement": "onset of increase of acyl-modified ghrelin content in the stomach", "setting": "[3]; mice, 5% w/w chow after 12-hour fasting, N-RIA", "result": "increased three hours after the ingestion"}, {"measurement": "time to maximal levels of n-octanoyl ghrelin in the stomach after starting ingestion", "setting": "[3]; mice, 5% w/w chow continuously supplied", "result": 24, "unit": "h"}, {"measurement": "stomach content of total ghrelin", "setting": "[3]; time course, C-RIA", "result": "no significant changes"}, {"measurement": "production of acyl-modified ghrelin in stomach tissue", "setting": "[4]", "result": "stimulated production"}, {"measurement": "expression level of gastric ghrelin mRNA", "setting": "ghrelin mRNA", "result": "did not change"}]}, {"compound": "des-acyl ghrelin: ghrelin peptide in which the position-3 amino acid is not acylated (GSSFLSPEHQRVQQRKESKKPPAKLQPR; Ghrelin-28 non-acylated; UniProt Q9UBU3 24-51, looked up)", "values": [{"measurement": "recognition by anti-rat ghrelin [D1-D11] antiserum", "setting": "[5]", "result": "did not recognize"}]}, {"compound": "n-decanoyl ghrelin", "values": [{"measurement": "cross-reactivity of N-RIA", "setting": "[5]", "result": 20, "unit": "%"}]}, {"compound": "n-hexanoyl ghrelin", "values": [{"measurement": "cross-reactivity of N-RIA", "setting": "[5]", "result": 0.3, "unit": "%"}]}]}
